Columns and labels:
[1] = system: aptamer-Seq.10-Cy5 (csa-DEHP aptamer) (DNA, aptamer) TTCCGGGCATACGTATCGAATGTTGTGAGCCGTGGGCTGC; assay: 1H NMR; conditions: complex formed in deionized water at 4 °C overnight, dialyzed; amino signals shift 1.9 to 2.3 ppm
[2] = system: DEHP aptamer-Seq.10 (FAM-labeled) (DNA, aptamer) TTCCGGGCATACGTATCGAATGTTGTGAGCCGTGGGCTGC; assay: graphene oxide fluorescence assay; conditions: 37 °C, 1.5 h incubation; graphene oxide:ssDNA mass ratio 100:1; nonlinear regression

Compound: CCCCC(CC)COC(=O)c1ccccc1C(=O)OCC(CC)CCCC (centres unmarked)
- binding [1]: yes
- Kd [2]: 70 nM
